Test results from patent US20160213714A1, “INDUCTION OF CELLULAR SENESCENCE FOR TISSUE THERAPIES” (Everon Biosciences, Inc., priority 2015, published 2016).

How the values were obtained:
[1] = system: primary human WI-38 fibroblasts; experiment: Senescence induction (SA-β-Gal activity, morphology) of bleomycin-treated cells; format: cell-based; details: 15 ug/ml for 72 hours; stained 7 days post-treatment
Procedure: (§1) FIG. 1: Senescence-associated beta-galactosidase (SA-β-Gal) activity of bleomycin-treated cells. A549 cancer cells (panel A) and primary human WI-38 fibroblasts (panel B) were treated for 72 hours with 50 ug/ml or 15 ug/ml of bleomycin, respectively. Cells were fixed and stained 7 days post-bleomycin treatment. Non-treated cultures, confluent at the time of staining, were used as controls.

A549 cancer cells = experiment: as above; format: cell-based; details: 50 ug/ml for 72 hours; stained 7 days post-treatment
Procedure: as §1

Question: With bleomycin as the substance, how does the cellular morphology [1] read?
Answer: Its cellular morphology is “Enlarged cellular morphology”.

Question: What about the cellular morphology (A549 cancer cells) of the same substance?
Answer: The cellular morphology was “Enlarged cellular morphology”.
